How the values were obtained:
Type in all cases: cell-based
Huh 7 cells = test: Cell binding analysis of Cy5-labeled aptamers (FACS); conditions: three vs five gemcitabines bound, method of Example 2-1, FIG. 19
Protocol: The 12-10 aptamer and 5 aptamer libraries prepared by truncating the 12-10 aptamer at various lengths [12-10 (40-mer), 12-12 (35-mer), 12-11 (29-mer), 12-13 (24-mer), 12-14 (23-mer), 12-15 (18-mer)] were subjected to cell binding analysis. Each aptamer sequence was labeled with Cy5 at the 5′ end thereof according to the method of Example 1-1. Huh 7 cells (ATCC, Rockville, MD, USA) were seeded at a density of 2×10^6/mL in a 100 mm^2 culture plate, and cultured using a DMEM medium (Gibco, Grand Island, NY, USA) containing 10% FBS (Gibco, Grand Island, NY, USA) and 1% antibiotics (penicillin/streptomycin) under conditions of 5% CO2 and 37° C. 5 μM of the aptamer stock was mixed with 5×SB18 buffer to prepare the aptamer at a concentration of 4 μM, and heated at 95° C. for 5 min, and then cooled at room temperature for 15 min or more. 4 μM of the aptamer was diluted with KRPH buffer (20 mM HEPES, 5 mM KH2PO4, 1 mM MgSO4, 1 mM CaCl2, 136 mM NaCl, 4.7 mM KCl, pH 7.4) at a concentration of 25 nM. The culture medium was removed from the cultured cells, and 4 mL of phosphate-buffered saline (PBS) was added thereto, followed by washing, and then 4 mL of PBS was removed. 4 mL of cold PBS or warm PBS was added, and cells were scraped using a scraper, and collected in tubes, followed by pipetting. The cells were divided and added to fluorescence-activated cell sorting (FAC) tubes according to the number of samples, followed by centrifugation at 4° C. and 2000 rpm for 4 min. After removing the supernatant, each 500 μL of 25 nM aptamer and control (31-08 (40-mer) aptamer) were added to […] of KRPH buffer, followed by pipetting. The tube was covered with foil to block the light, followed by incubation at 4° C. for 30 min. After incubation, centrifugation was performed at 4° C. and 2000 rpm for 4 min, and the supernatant was removed. 2 mL of cold 1×PBS was added, washed, centrifuged at 4° C. and 2000 rpm for 4 min, and the supernatant was removed. This process was repeated three times. […] Cy5 was measured at […]. […]

[1] = tested on: squamous cell carcinoma cells (A431); test: Cell cycle analysis (propidium iodide, FACS); conditions: 4 hr treatment, FIG. 27
Protocol: (§1) To analyze the effects of combi 4 and combi 5 bound with three or five gemcitabines on the cell cycle of hepatoma cells, cell cycle analysis was performed. In detail, Hep3B, HepG2, and A431 cells were seeded in a 6-well plate at a density of 1×10^6/ml, and cultured using a DMEM medium containing 10% FBS and 1% antibiotics (penicillin/streptomycin) under conditions of 5% CO2 and 37° C., respectively. Next day, 100 μM of the modified aptamer stock was mixed with 5×SB18 buffer to prepare the aptamer at a concentration of 80 μM, and heated at 95° C. for 5 min, and then cooled at room temperature for 15 min or more. The medium was removed from the cultured cells, and replaced by a serum-free medium, and cultured under conditions of 37° C. and 5% CO2 for 1 hr. The serum-free medium was removed, and then the cells were washed with 2 ml of 1×PBS. 2 ml of KRPH buffer was added, and cultured under conditions of 37° C. and 5% CO2 for 1 hr. The aptamer was added, and cultured under conditions of 37° C. and 5% CO2 for 4 hr. The KRPH buffer was removed, and 2 ml of 1×PBS was added thereto to perform washing, and then PBS was removed. 2 ml of 1×PBS was added, and cells were scraped using a scraper, and collected in FACs tubes, followed by centrifugation at 4° C. and 2000 rpm for 4 minutes. 1/500-fold diluted RNAase A and propidium iodide diluted with PBS at a concentration of 50 μg/ml were added to the FACs tubes at a volume of 500 μL, followed by pipetting. Incubation was performed at room temperature for 30 min while blocking the light, and then cell cycle was measured.

[2] = tested on: hepatoma cells (Hep3B, HepG2); test: Cell cycle analysis (propidium iodide, FACS); conditions: 4 hr treatment, FIGS. 25 and 26
Protocol: as §1

Substance: Combi 5 G(3) (DNA GNGAANGCGNNGAANNANWYSSSNNCAGNCANCAC; gemcitabines, 2'-OMe, 2'-F, BzdU, 3' idT; Combi 5 G(3); (1)..(1) G is 2-O-Methoxy-DNA.; (2)..(2) n is BzdU.; (3)..(3) G is 2-O-Methoxy-DNA.; (4)..(4) A is 2-Fluorine-DNA.; (5)..(5) A is 2-Fluorine-DNA.; (6)..(6) n is BzdU.; (10)..(10) n is BzdU.; (11)..(11) n is BzdU.; (12)..(12) G is 2-Fluorine-DNA.; (13)..(13) A is 2-Fluorine-DNA.; (14)..(14) A is 2-O-Methoxy-DNA.; (15)..(15) n is BzdU.; (16)..(16) n is BzdU.; (17)..(17) A is 2-O-Methox)
- cell binding ability (Huh 7 cells): excellent cell binding ability
- cell cycle arrest [1]: no cell cycle arrest
- cell cycle arrest [2]: arrested hepatoma cells at the G1/S phase

Reference: US12668803B2, “Glypican-3-specific modified aptamer and use thereof” (APTAMER SCIENCES INC., priority 2019, dated 2026)
